According to ChEMBL document CHEMBL4364293, “Design, Synthesis, and Structure-Activity Relationship of 7-Propanamide Benzoxaboroles as Potent Anticancer Agents” (J Med Chem, 2019):

Assays:
SK-OV-3 = experiment: Antiproliferative activity against human SKOV3 cells after 72 hrs by MTT assay; assay type: functional, cell-based; details: SK-OV-3, 72 h
WI-38 = experiment: Cytotoxicity against human WI38 cells after 72 hrs by MTT assay; assay type: cell-based; details: WI-38, 72 h
MDA-MB-231 = experiment: Antiproliferative activity against human MDA-MB-231 cells after 72 hrs by MTT assay; assay type: functional, cell-based; details: MDA-MB-231, 72 h
HCT-116 = experiment: Antiproliferative activity against human HCT116 cells after 72 hrs by MTT assay; assay type: functional, cell-based; details: HCT-116, 72 h
[1] = Selectivity ratio, ratio of IC50 for human WI38 cells to IC50 for human SKOV3 cells; assay type: toxicity; details: WI38 cells versus SKOV3 cells, read-out: Ratio IC50

Row | Structure (SMILES) | IC50 (SK-OV-3) | IC50 (WI-38) | IC50 (MDA-MB-231) | IC50 (HCT-116) | selectivity ratio [1]
1 | O=C(CCc1cccc2c1B(O)OC2)Nc1ccc(Cl)cc1 | 5000 nM | > 100000 nM | 3600 nM | 12000 nM | –
2 | CSc1cccc(-c2cccc(NC(=O)CCc3cccc4c3B(O)OC4)c2)c1 | 150 nM | 2000 nM | 150 nM | 110 nM | –
3 | O=C(CCc1ccccc1)Nc1ccccc1 | > 100000 nM | > 100000 nM | > 100000 nM | > 100000 nM | –
4 | COc1ccc(-c2cccc(NC(=O)CCc3cccc4c3B(O)OC4)c2)cc1 | 48 nM | 1400 nM | 88 nM | 160 nM | –
5 | O=C(CCc1cccc2c1B(O)OC2)Nc1ccc(I)cc1 | 51000 nM | 49000 nM | 33000 nM | 50000 nM | –
6 | CC(C)(C)c1ccc(NC(=O)CCc2cccc3c2B(O)OC3)cc1 | 4200 nM | 55000 nM | 33000 nM | 19000 nM | –
7 | COc1cccc(-c2cccc(NC(=O)CCc3cccc4c3COB4O)c2)c1 | 78000 nM | > 100000 nM | 76000 nM | 46000 nM | –
8 | CSc1ccc(-c2cccc(NC(=O)CCc3cccc4c3B(O)OC4)c2)cc1 | 140 nM | 3800 nM | 140 nM | 180 nM | –
9 | N#Cc1ccc(-c2cccc(NC(=O)CCc3cccc4c3B(O)OC4)c2)cc1 | 340 nM | 12000 nM | 380 nM | 410 nM | –
10 | CC(=O)c1ccc(-c2cccc(NC(=O)CCc3ccccc3)c2)cc1 | 3200 nM | 13000 nM | 2700 nM | 4000 nM | –
11 | Cc1ccc(NC(=O)CCc2cccc3c2B(O)OC3)cc1Br | 600 nM | 15000 nM | 870 nM | 1200 nM | –
12 | COc1cccc(-c2cccc(NC(=O)CCc3ccc4c(c3)COB4O)c2)c1 | > 100000 nM | > 100000 nM | 90000 nM | 81000 nM | –
13 | COc1ccc(NC(=O)CCc2cccc3c2B(O)OC3)cc1OC | > 100000 nM | > 100000 nM | > 100000 nM | > 100000 nM | –
14 | O=C(CCc1cccc2c1B(O)OC2)Nc1cccc(-c2ccc(F)cc2)c1 | 93 nM | 4100 nM | 250 nM | 550 nM | 44
15 | O=C(CCc1cccc2c1B(O)OC2)Nc1cccc(-c2cccc(C(F)(F)F)c2)c1 | 390 nM | 23000 nM | 410 nM | 580 nM | –
16 | COc1cc(OC)cc(-c2cccc(NC(=O)CCc3ccccc3)c2)c1 | > 100000 nM | > 100000 nM | 87000 nM | > 100000 nM | –
17 | O=C(CCc1cccc2c1B(O)OC2)Nc1cccc(Br)c1 | 540 nM | 20000 nM | 720 nM | 1400 nM | –
18 | O=C(CCc1cccc2c1B(O)OC2)Nc1ccc(F)cc1 | 720 nM | 12000 nM | 440 nM | 650 nM | –
19 | O=C(CCc1cccc2c1B(O)OC2)Nc1cccc2ccccc12 | 170 nM | 1200 nM | 150 nM | 200 nM | –
20 | O=C(CCc1cccc2c1B(O)OC2)Nc1ccccc1 | 200 nM | 30000 nM | 230 nM | 350 nM | 150
21 | O=C(CCc1cccc2c1B(O)OC2)Nc1cccc(-c2ccc(Cl)cc2)c1 | 220 nM | 9800 nM | 260 nM | 380 nM | –
22 | COc1ccc(NC(=O)CCc2cccc3c2B(O)OC3)cc1 | 900 nM | > 100000 nM | 850 nM | 1700 nM | –
23 | CC(=O)c1ccc(-c2cccc(NC(=O)CCc3ccc4c(c3)B(O)OC4)c2)cc1 | > 100000 nM | > 100000 nM | 59000 nM | 19000 nM | –
24 | OB1OCc2ccccc21 [BENZOXABOROLE] | > 100000 nM | 58000 nM | > 100000 nM | > 100000 nM | –
